From PubChem BioAssay (NCI)
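At the GI50, growth is halved. TGI denotes the concentration required for complete inhibition of growth.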

Assays:
Assay in all cases: NCI tumour cell line growth inhibition, 384-well format
[1] = tested on: SK-MEL-5 melanoma
[2] = tested on: SN12C renal
[3] = tested on: HCT-15 colon
[4] = tested on: M14 melanoma
[5] = tested on: HOP-62 NSCLC
[6] = tested on: UACC-257 melanoma
[7] = tested on: HL-60(TB) leukemia
[8] = tested on: 786-0 renal
[9] = tested on: SNB-19 CNS
[10] = tested on: HS 578T breast
[11] = tested on: OVCAR-3 ovarian
[12] = tested on: OVCAR-5 ovarian
[13] = tested on: HOP-92 NSCLC
[14] = tested on: IGROV1 ovarian
[15] = tested on: HT29 colon
[16] = tested on: U251 glioblastoma
[17] = tested on: SNB-75 CNS
[18] = tested on: K-562 leukemia
[19] = tested on: SF-295 CNS
[20] = tested on: HCT-116 colon
[21] = tested on: OVCAR-8 ovarian
[22] = tested on: COLO 205 colon
[23] = tested on: SR leukemia
[24] = tested on: MDA-MB-231 breast
[25] = tested on: NCI-H460 NSCLC
[26] = tested on: NCI-H23 lung
[27] = tested on: NCI-H322M lung
[28] = tested on: BT-549 breast

For O=C(NOCCO)c1cc(CN2OCCCC2=O)c(F)c(F)c1Nc1ccc(I)cc1F, the GI50 [1] was < 0.01 µM, the TGI [1] was 17.5 µM and the GI50 [2] was 1.28 µM. For the same compound, the TGI [2] was > 100 µM, the GI50 [3] was 5.87 µM and the TGI [3] was > 100 µM. The GI50 [4] was < 0.01 µM, the TGI [4] was 0.0119 µM and the GI50 [5] was 0.0251 µM. The TGI [5] was 64.6 µM, the GI50 [6] was < 0.01 µM and the TGI [6] was < 0.01 µM. For the same compound, the GI50 [7] was < 0.01 µM, the TGI [7] was 10.6 µM and the GI50 [8] was 11.6 µM. It also gave a TGI [8] of 42 µM, a GI50 [9] of 12.7 µM and a TGI [9] of 62.8 µM. The GI50 [10] was 3.48 µM, the TGI [10] was 23.8 µM and the GI50 [11] was 10.2 µM. For the same compound, the TGI [11] was 39.6 µM, the GI50 [12] was < 0.01 µM and the TGI [12] was > 100 µM. It also gave a GI50 [13] of 0.179 µM, a TGI [13] of 1.72 µM and a GI50 [14] of 0.0179 µM. For the same compound, the TGI [14] was 7.87 µM, the GI50 [15] was < 0.01 µM and the TGI [15] was 20.8 µM. The GI50 [16] was 0.209 µM, the TGI [16] was 17.8 µM and the GI50 [17] was 2.85 µM. It also gave a TGI [17] of 17.7 µM, a GI50 [18] of 0.0276 µM and a TGI [18] of 17 µM. For the same compound, the GI50 [19] was 11.2 µM, the TGI [19] was 41.1 µM and the GI50 [20] was 0.018 µM. For the same compound, the TGI [20] was 1.28 µM, the GI50 [21] was 4.6 µM and the TGI [21] was 25.5 µM. The GI50 [22] was < 0.01 µM, the TGI [22] was 0.027 µM and the GI50 [23] was 2.12 µM. The TGI [23] was 11.1 µM, the GI50 [24] was 0.0601 µM and the TGI [24] was > 100 µM. The GI50 [25] was 0.0236 µM, the TGI [25] was 51.9 µM and the GI50 [26] was < 0.01 µM. It also gave a TGI [26] of 0.371 µM, a GI50 [27] of 0.0737 µM and a TGI [27] of 4.19 µM. It also gave a GI50 [28] of 6.65 µM.
